Where “and” joins values, the source holds several entries; their conditions need not be identical. Equal entries are not always repeated. Inconclusive results and toxic doses are left out. No stated cut-off is given here; in the data, active means T/C of 150% or more; inactive means T/C below 125%.
Tested on: L1210 leukemia ip in BDF1 mice, survival T/C
Test: NCI In Vivo Anticancer Drug Screen. Data for tumor model L1210 Leukemia (intraperitoneal) in B6D2F1 (BDF1) mice
Conditions: endpoint: mean survival time, higher = longer survival
In short: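 Mice bearing the transplanted tumor received compound or vehicle. Survival of the treated group was divided by that of the vehicle-treated control group to give the ratio.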

[1] = dose: 25.0 mg/kg/injection, schedule: Q04DX003 (ip), vehicle: saline
[2] = dose: 50.0 mg/kg/injection, schedule: Q04DX003 (ip), vehicle: saline
[3] = dose: 100.0 mg/kg/injection, schedule: Q04DX003 (ip), vehicle: saline
[4] = dose: 100.0 mg/kg/injection, schedule: Q01DX009 (ip), vehicle: saline
[5] = dose: 200.0 mg/kg/injection, schedule: Q01DX009 (ip), vehicle: saline
[6] = dose: 200.0 mg/kg/injection, schedule: Q04DX003 (ip), vehicle: saline
[7] = dose: 400.0 mg/kg/injection, schedule: Q04DX003 (ip), vehicle: saline
[8] = dose: 100.0 mg/kg/injection, schedule: Q04DX003 (ip), vehicle: Klucel (hydroxypropylcellulose) (HPC)
[9] = dose: 200.0 mg/kg/injection, schedule: Q04DX003 (ip), vehicle: Klucel (hydroxypropylcellulose) (HPC)
[10] = dose: 400.0 mg/kg/injection, schedule: Q04DX003 (ip), vehicle: Klucel (hydroxypropylcellulose) (HPC)
[11] = dose: 25.0 mg/kg/injection, schedule: Q01DX009 (ip), vehicle: saline
[12] = dose: 50.0 mg/kg/injection, schedule: Q01DX009 (ip), vehicle: saline

Measured: T/C

CCCCCCCCCCCCOC(=O)C(Cl)(Cl)Cl
inactive: dose: 100.0 mg/kg/injection, schedule: Q01DX001 (ip), vehicle: other 93 % of control | dose: 100.0 mg/kg/injection, schedule: Q04DX003 (ip), vehicle: other 102 % of control | dose: 200.0 mg/kg/injection, schedule: Q01DX001 (ip), vehicle: other 96 % of control | dose: 200.0 mg/kg/injection, schedule: Q04DX003 (ip), vehicle: other 96 % of control | dose: 400.0 mg/kg/injection, schedule: Q01DX001 (ip), vehicle: other 93 % of control | dose: 400.0 mg/kg/injection, schedule: Q04DX003 (ip), vehicle: other 97 % of control

O=Nc1ccc(NO)c2ccccc12
inactive: dose: 12.5 mg/kg/injection, schedule: Q04DX003 (ip), vehicle: saline 108 % of control | dose: 25.0 mg/kg/injection, schedule: Q04DX003 (ip), vehicle: saline + alcohol 100 % of control | [1] 102 % of control | dose: 50.0 mg/kg/injection, schedule: Q04DX003 (ip), vehicle: saline + alcohol 100 % of control | [2] 100 % of control | dose: 100.0 mg/kg/injection, schedule: Q04DX003 (ip), vehicle: saline + alcohol 96 % of control | [3] 99 % of control

c1ccc2cnccc2c1
inactive: [4] 100 % of control | [5] 110 % of control

CCC(=O)C(CCCN(C)C)(c1ccccc1)c1ccccc1
inactive: dose: 5.0 mg/kg/injection, schedule: Q01DX001 (ip), vehicle: saline 107 % of control | dose: 10.0 mg/kg/injection, schedule: Q01DX001 (ip), vehicle: saline 104 % of control | dose: 20.0 mg/kg/injection, schedule: Q01DX001 (ip), vehicle: saline 93 % of control | dose: 40.0 mg/kg/injection, schedule: Q01DX001 (ip), vehicle: saline 98 % of control

CC1(C)CCSC(/C=C/c2ccccc2)=N1
inactive: [3] 100 % of control | [6] 102 % of control | [7] 103 % of control

CCCCOP(=O)(OCCCC)C(c1ccccc1)(c1ccccc1)c1ccccc1
inactive: [8] 91 % of control | [9] 94 % of control | [10] 96 % of control

CC1OC(=O)C(=O)C1(C)C (stereo unspecified)
inactive: dose: 32.0 mg/kg/injection, schedule: Q01DX001 (ip), vehicle: carboxymethylcellulose (CMC) 100 % of control | dose: 62.5 mg/kg/injection, schedule: Q01DX001 (ip), vehicle: carboxymethylcellulose (CMC) 102 % of control | dose: 125.0 mg/kg/injection, schedule: Q01DX001 (ip), vehicle: carboxymethylcellulose (CMC) 93 % of control | dose: 250.0 mg/kg/injection, schedule: Q01DX001 (ip), vehicle: carboxymethylcellulose (CMC) 100 % of control | dose: 500.0 mg/kg/injection, schedule: Q01DX001 (ip), vehicle: carboxymethylcellulose (CMC) 107 % of control

CC(C)(C)C(=O)/C=C/c1ccc(Cl)cc1
inactive: dose: 100.0 mg/kg/injection, schedule: Q04DX002 (ip), vehicle: gum acacia 93 % of control | dose: 200.0 mg/kg/injection, schedule: Q04DX002 (ip), vehicle: gum acacia 97 % of control | dose: 400.0 mg/kg/injection, schedule: Q04DX002 (ip), vehicle: gum acacia 104 % of control

COc1cc(C(=O)OC(C)CN2CCOCC2)cc(OC)c1OC (stereo unspecified)
inactive: [11] 90 % of control | [1] 95 % of control | [12] 101 % of control | [2] 109 % of control | [4] 100 % of control | [3] 101 % of control | [5] 90 % of control | [6] 101 % of control | [7] 111 % of control

O=C(/C=C/c1cccc([N+](=O)[O-])c1)CCl
inactive: dose: 25.0 mg/kg/injection, schedule: Q04DX003 (ip), vehicle: saline with Tween-80 110 % of control | dose: 50.0 mg/kg/injection, schedule: Q04DX003 (ip), vehicle: saline with Tween-80 105 % of control | dose: 100.0 mg/kg/injection, schedule: Q04DX003 (ip), vehicle: saline with Tween-80 103 % of control and 104 % of control

CCSCC(O)CCl (stereo unspecified)
inactive: dose: 37.5 mg/kg/injection, schedule: Q04DX002 (ip), vehicle: saline 103 % of control | dose: 37.5 mg/kg/injection, schedule: Q04DX003 (ip), vehicle: Klucel (hydroxypropylcellulose) (HPC) 115 % of control | dose: 75.0 mg/kg/injection, schedule: Q04DX002 (ip), vehicle: saline 107 % of control | dose: 75.0 mg/kg/injection, schedule: Q04DX003 (ip), vehicle: Klucel (hydroxypropylcellulose) (HPC) 105 % of control | dose: 150.0 mg/kg/injection, schedule: Q04DX002 (ip), vehicle: saline 100 % of control | dose: 150.0 mg/kg/injection, schedule: Q04DX003 (ip), vehicle: Klucel (hydroxypropylcellulose) (HPC) 98 % of control

CC(C)OC(=O)Nc1ccc(-c2ccc(NC(=O)OC(C)C)cc2)cc1
inactive: dose: 100.0 mg/kg/injection, schedule: Q01DX009 (ip), vehicle: Klucel (hydroxypropylcellulose) (HPC) 95 % of control | [8] 91 % of control | dose: 200.0 mg/kg/injection, schedule: Q01DX009 (ip), vehicle: Klucel (hydroxypropylcellulose) (HPC) 97 % of control | [9] 91 % of control | dose: 400.0 mg/kg/injection, schedule: Q01DX009 (ip), vehicle: Klucel (hydroxypropylcellulose) (HPC) 97 % of control | [10] 98 % of control

CC1c2c(c3ccccc3n2C)CC[N+]1(C)C (stereo unspecified)
inactive: dose: 12.5 mg/kg/injection, schedule: Q01DX009 (ip), vehicle: carboxymethylcellulose (CMC) 109 % of control and 88 % of control | dose: 25.0 mg/kg/injection, schedule: Q01DX009 (ip), vehicle: carboxymethylcellulose (CMC) 115 % of control and 86 % of control | dose: 25.0 mg/kg/injection, schedule: Q04DX002 (ip), vehicle: carboxymethylcellulose (CMC) 102 % of control and 103 % of control | dose: 25.0 mg/kg/injection, schedule: Q04DX003 (ip), vehicle: carboxymethylcellulose (CMC) 102 % of control | dose: 50.0 mg/kg/injection, schedule: Q01DX009 (ip), vehicle: carboxymethylcellulose (CMC) 94 % of control and 88 % of control | dose: 50.0 mg/kg/injection, schedule: Q04DX002 (ip), vehicle: carboxymethylcellulose (CMC) 94 % of control and 99 % of control | dose: 50.0 mg/kg/injection, schedule: Q04DX003 (ip), vehicle: carboxymethylcellulose (CMC) 105 % of control | dose: 100.0 mg/kg/injection, schedule: Q04DX003 (ip), vehicle: carboxymethylcellulose (CMC) 116 % of control

C=CCc1cn(C2OC(COC(=O)c3ccccc3)C(OC(=O)c3ccccc3)C2OC(=O)c2ccccc2)c(=O)[nH]c1=O (stereo unspecified)
inactive: dose: 12.5 mg/kg/injection, schedule: Q01DX005 (ip), vehicle: saline 92 % of control | dose: 12.5 mg/kg/injection, schedule: Q01DX009 (ip), vehicle: saline 95 % of control | dose: 25.0 mg/kg/injection, schedule: Q01DX005 (ip), vehicle: saline 92 % of control | [11] 95 % of control | dose: 50.0 mg/kg/injection, schedule: Q01DX005 (ip), vehicle: saline 94 % of control | [12] 98 % of control

CCOC(=O)C(C)SCC(CSC(C)C(=O)OCC)(CSC(C)C(=O)OCC)CSC(C)C(=O)OCC (stereo unspecified)
inactive: dose: 100.0 mg/kg/injection, schedule: Q01DX001 (ip), vehicle: saline with Tween-80 104 % of control | dose: 200.0 mg/kg/injection, schedule: Q01DX001 (ip), vehicle: saline with Tween-80 107 % of control | dose: 400.0 mg/kg/injection, schedule: Q01DX001 (ip), vehicle: saline with Tween-80 104 % of control

CN(C)CC1CCCCC1OC(=O)c1ccccc1 (stereo unspecified)
inactive: dose: 50.0 mg/kg/injection, schedule: Q01DX009 (ip), vehicle: saline with Tween-80 91 % of control | dose: 100.0 mg/kg/injection, schedule: Q01DX009 (ip), vehicle: saline with Tween-80 94 % of control

— PubChem BioAssay AID248 (DTP/NCI, 2004)
